{
  "source": "patent US20050244335A1",
  "about": "“Methods and compositions related to increasing antitumor activity of chemotherapeutic agents” (priority 2004, published 2005)",
  "key": {"[1]": {"experiment": "Pharmacokinetics of carboplatin in nude mice bearing LS174T xenografts", "type": "in vivo", "details": "for AUC / CL / Cmax / T1/2 / Vss: nude mice bearing LS174T xenografts, carboplatin 60 mg/kg iv", "protocol": "Pharmacokinetics and Tissue Distribution of Carboplatin. Pharmacokinetic studies were carried out using a protocol similar to that previously described (26) using metabolism cages. Female nude mice bearing human colon cancer LS174T xenografts or human lung cancer A549 xenografts were used (3 animals for each time point). Animals were pre-treated with DEX (s.c., 0.1 mg/day/mouse for 5 days) or saline (as controls) and, at 1 hr after the fifth dose of DEX, were given a single intravenously (i.v.) bolus administration of carboplatin (60 mg/kg) via a tail vein. At various times (5, 15, and 30 min, 1, 2, 4, 8, and 24 hr after carboplatin dosing), blood samples were collected in heparinized tubes and tissue samples removed. Plasma was separated by centrifugation at 20,000 g for 5 min. Tissues including liver, kidneys, spleen, and tumor were taken at various times and immediately blotted on Whatman No. 1 filter paper, trimmed of extraneous fat or connective tissue, weighed, and homogenized in 0.9% NaCl physiological saline (5 mL per gram of wet weight). The resultant homogenates were stored at −70° C. until further analysis. Bone marrow cells were harvested by flushing the femurs with sterile physiological saline as reported previously (30). Briefly, after removing the distal and proximal ends of femur, each end of the bone was punctured with a 20-gauge needle fitted with a 5 mL syringe containing 1 mL of sterile physiological saline (pre-weighed). The bone was then held with a forceps over a test tube and the needle was inserted into the hole in the proximal end. The 1 mL saline was flushed through the bone into the tube by applying gentle, steady pressure to the plunger. The syringe was then filled with 5 ml of air that was gently forced through the bone to remove the remaining saline and bone marrow in the shaft. The resultant bone marrow cell suspension was weighed and lysed by sonicating 5 times for periods of 10 sec. Following centrifugation at 20,000 g for 30 min, the supernatant was removed and stored at −70° C. until further analysis.\nHPLC Analysis of Carboplatin in Plasma and Tissues. Carboplatin in biological samples was analyzed by an analytical procedure involving micro-filtration and reversed-phase HPLC (31). 200 μL of plasma or tissue homogenates or bone marrow suspension was added to the reservoir of a Centrifree™ micropartition system. The latter was capped and centrifuged at 2,000 g for 5 min. All filtrates were transferred into a new micro centrifuge tube and 6 μL of the filtrates was injected onto the HPLC column. The HPLC system consisted of a Hewlett Packard 1050 ChemStation with a UV detector (Agilent 1050 series). Determination of Carboplatin was achieved using a LiChrosorb™ diol (10 μm, 250×4.6 mm) analytical column with a LiChroCART 100 RP-18 guard column. The mobile phase for plasma was composed of 98:2 acetonitrile:H2O (vol/vol) and 89:11 acetonitrile: 0.015% H3PO4 (vol/vol) for urine and tissue samples. The flow rates were 2 mL/min (for plasma) and 1.1 mL/min (for urine and tissue samples). The column elute was monitored by UV at 229 nm. Quantitation of plasma or tissue carboplatin was carried out by using an external standard curve (0-4,000.0 μg/mL) that was freshly prepared on a daily basis. Linear regression and correlation analysis were carried out to establish the standard peak-area/concentration curves for carboplatin.\n(§1) Data and Statistical Analysis."}, "CD-1 mice": {"tested_on": "CD-1 mice", "type": "in vivo", "details": "CD-1 mice", "protocol": "Male CD-1 mice, randomly divided into multiple treatment and control groups (10 mice/group), were given DEX by subcutaneous (s.c.) injection at doses of 0.01, 0.05, 0.1, 0.3 mg/mouse/day or saline (as controls) for 5 days prior to (day −4 to 0) or after (day 0 to 4) a single intraperitoneal (i.p.) injection of carboplatin (600 mg/m^2 or 200 mg/kg) on day 0. Animals were monitored daily for activity, physical condition, body weight and 14-day survival rates.\nThe significance of the differences among treated groups and controls were analyzed by ANOVA."}, "[2]": {"tested_on": "human breast cancer MDA-MB-468 xenografts", "experiment": "In vivo chemotherapy, breast cancer MDA-MB-468 xenograft model in nude mice", "details": "MDA-MB-468 model; agent alone", "source_text": "(§2) Cell Culture. […] All media contained 1% penicillin-streptomycin.\nas §1"}, "[3]": {"tested_on": "human breast cancer MCF-7 xenografts", "experiment": "In vivo chemotherapy, breast cancer MCF-7 xenograft model in nude mice", "details": "MCF-7 model; agent alone", "source_text": "as §2, §1"}, "[4]": {"details": "LS174T nude mice, without DEX treatment"}},
  "data": [
    {"smiles": "N.N.O=C([O-])C1(C(=O)[O-])CCC1.[Pt+2]", "note": "[carboplatin]", "values": [
      {"measurement": "decrease in tumor Clearance by DEX pretreatment", "setting": "[1]; LS174T nude mice", "value": 160, "unit": "%"},
      {"measurement": "increase in tumor AUC by DEX pretreatment", "setting": "[1]; LS174T nude mice", "value": 200, "unit": "%"},
      {"measurement": "increase in tumor Cmax by DEX pretreatment", "setting": "[1]; LS174T nude mice", "value": 100, "unit": "%"},
      {"measurement": "tumor AUC relative to bone marrow AUC", "setting": "[1]; [4]", "value": 3, "unit": "%"},
      {"measurement": "tumor AUC relative to liver AUC", "setting": "[1]; [4]", "value": 23, "unit": "%"},
      {"measurement": "tumor AUC relative to spleen AUC", "setting": "[1]; [4]", "value": 4, "unit": "%"},
      {"measurement": "AUC", "setting": "[1]; bone marrow, DEX (+)", "value": 269710, "unit": "ng·h/mL"},
      {"measurement": "CL", "setting": "[1]; bone marrow, DEX (+)", "value": 0.22, "unit": "mL/g/h"},
      {"measurement": "Cmax", "setting": "[1]; bone marrow, DEX (+)", "value": 22560, "unit": "ng/mL"},
      {"measurement": "T1/2", "setting": "[1]; bone marrow, DEX (+)", "value": 410, "unit": "min"},
      {"measurement": "Vss", "setting": "[1]; bone marrow, DEX (+)", "value": 2.17, "unit": "mL/g"},
      {"measurement": "AUC", "setting": "[1]; bone marrow, DEX (−)", "value": 411270, "unit": "ng·h/mL"},
      {"measurement": "CL", "setting": "[1]; bone marrow, DEX (−)", "value": 0.15, "unit": "mL/g/h"},
      {"measurement": "Cmax", "setting": "[1]; bone marrow, DEX (−)", "value": 23360, "unit": "ng/mL"},
      {"measurement": "T1/2", "setting": "[1]; bone marrow, DEX (−)", "value": 669.6, "unit": "min"},
      {"measurement": "Vss", "setting": "[1]; bone marrow, DEX (−)", "value": 2.42, "unit": "mL/g"},
      {"measurement": "AUC", "setting": "[1]; liver, DEX (+)", "value": 42450, "unit": "ng·h/mL"},
      {"measurement": "CL", "setting": "[1]; liver, DEX (+)", "value": 1.41, "unit": "mL/g/h"},
      {"measurement": "Cmax", "setting": "[1]; liver, DEX (+)", "value": 19410, "unit": "ng/mL"},
      {"measurement": "T1/2", "setting": "[1]; liver, DEX (+)", "value": 33.6, "unit": "min"},
      {"measurement": "Vss", "setting": "[1]; liver, DEX (+)", "value": 1.14, "unit": "mL/g"},
      {"measurement": "AUC", "setting": "[1]; liver, DEX (−)", "value": 51520, "unit": "ng·h/mL"},
      {"measurement": "CL", "setting": "[1]; liver, DEX (−)", "value": 1.16, "unit": "mL/g/h"},
      {"measurement": "Cmax", "setting": "[1]; liver, DEX (−)", "value": 26970, "unit": "ng/mL"},
      {"measurement": "T1/2", "setting": "[1]; liver, DEX (−)", "value": 29.4, "unit": "min"},
      {"measurement": "Vss", "setting": "[1]; liver, DEX (−)", "value": 0.82, "unit": "mL/g"},
      {"measurement": "AUC", "setting": "[1]; plasma, DEX (+)", "value": 43160, "unit": "ng·h/mL"},
      {"measurement": "CL", "setting": "[1]; plasma, DEX (+)", "value": 1.39, "unit": "mL/g/h"},
      {"measurement": "Cmax", "setting": "[1]; plasma, DEX (+)", "value": 280800, "unit": "ng/mL"},
      {"measurement": "T1/2", "setting": "[1]; plasma, DEX (+)", "value": 6.6, "unit": "min"},
      {"measurement": "Vss", "setting": "[1]; plasma, DEX (+)", "value": 0.21, "unit": "mL/g"},
      {"measurement": "AUC", "setting": "[1]; plasma, DEX (−)", "value": 44510, "unit": "ng·h/mL"},
      {"measurement": "CL", "setting": "[1]; plasma, DEX (−)", "value": 1.35, "unit": "mL/g/h"},
      {"measurement": "Cmax", "setting": "[1]; plasma, DEX (−)", "value": 375270, "unit": "ng/mL"},
      {"measurement": "T1/2", "setting": "[1]; plasma, DEX (−)", "value": 4.8, "unit": "min"},
      {"measurement": "Vss", "setting": "[1]; plasma, DEX (−)", "value": 0.16, "unit": "mL/g"},
      {"measurement": "AUC", "setting": "[1]; spleen, DEX (+)", "value": 480, "unit": "ng·h/mL"},
      {"measurement": "CL", "setting": "[1]; spleen, DEX (+)", "value": 126.35, "unit": "mL/g/h"},
      {"measurement": "Cmax", "setting": "[1]; spleen, DEX (+)", "value": 9440, "unit": "ng/mL"},
      {"measurement": "T1/2", "setting": "[1]; spleen, DEX (+)", "value": 2.4, "unit": "min"},
      {"measurement": "Vss", "setting": "[1]; spleen, DEX (+)", "value": 6.36, "unit": "mL/g"},
      {"measurement": "AUC", "setting": "[1]; spleen, DEX (−)", "value": 353360, "unit": "ng·h/mL"},
      {"measurement": "CL", "setting": "[1]; spleen, DEX (−)", "value": 0.17, "unit": "mL/g/h"},
      {"measurement": "Cmax", "setting": "[1]; spleen, DEX (−)", "value": 24200, "unit": "ng/mL"},
      {"measurement": "T1/2", "setting": "[1]; spleen, DEX (−)", "value": 595, "unit": "min"},
      {"measurement": "Vss", "setting": "[1]; spleen, DEX (−)", "value": 2.43, "unit": "mL/g"},
      {"measurement": "AUC", "setting": "[1]; tumor, DEX (+)", "value": 33540, "unit": "ng·h/mL"},
      {"measurement": "CL", "setting": "[1]; tumor, DEX (+)", "value": 1.79, "unit": "mL/g/h"},
      {"measurement": "Cmax", "setting": "[1]; tumor, DEX (+)", "value": 89800, "unit": "ng/mL"},
      {"measurement": "T1/2", "setting": "[1]; tumor, DEX (+)", "value": 15.6, "unit": "min"},
      {"measurement": "Vss", "setting": "[1]; tumor, DEX (+)", "value": 0.67, "unit": "mL/g"},
      {"measurement": "AUC", "setting": "[1]; tumor, DEX (−)", "value": 12790, "unit": "ng·h/mL"},
      {"measurement": "CL", "setting": "[1]; tumor, DEX (−)", "value": 4.69, "unit": "mL/g/h"},
      {"measurement": "Cmax", "setting": "[1]; tumor, DEX (−)", "value": 44160, "unit": "ng/mL"},
      {"measurement": "T1/2", "setting": "[1]; tumor, DEX (−)", "value": 12, "unit": "min"},
      {"measurement": "Vss", "setting": "[1]; tumor, DEX (−)", "value": 1.36, "unit": "mL/g"},
      {"measurement": "survival rate", "setting": "CD-1 mice; carboplatin 600 mg/m^2 (200 mg/kg) i.p. alone (carboplatin controls), 14-day", "value": 10, "unit": "%"},
      {"measurement": "mortality rate", "setting": "CD-1 mice; single i.p. dose of carboplatin alone 600 mg/m^2 (200 mg/kg)", "value": 90, "unit": "%"},
      {"measurement": "effect on tumor growth", "setting": "[2]", "value": "no effects on tumor growth"},
      {"measurement": "effect on tumor growth", "setting": "[3]", "value": "limited effects on tumor growth"}
    ]}
  ]
}
